Results published in patent publication US9943082B2, “Ternary fungicidal mixtures” (BAYER CROPSCIENCE AG, priority 2012, dated 2018).

Test system: Puccinia triticina
Assay: Puccinia triticina test (wheat)/preventive
Format: in vivo
Settings: preventive spray, evaluated 8 days after inoculation
Description: To produce a suitable preparation of active compound, 1 part by weight of active compound or active compound combination is mixed with the stated amounts of solvent and emulsifier, and the concentrate is diluted with water to the desired concentration.
To test for preventive activity, young plants are sprayed with the preparation of active compound or active compound combination at the stated rate of application.
After the spray coating has been dried, the plants are sprayed with a spore suspension of Puccinia triticina. The plants remain for 48 hours in an incubation cabinet at approximately 20° C. and a relative atmospheric humidity of approximately 100%.
The plants are placed in the greenhouse at a temperature of approximately 20° C. and a relative atmospheric humidity of approximately 80%.
The test is evaluated 8 days after the inoculation. 0% means an efficacy which corresponds to that of the untreated control, while an efficacy of 100% means that no disease is observed.

| Structure (SMILES) | Efficacy in % found (10 ppm a.i.) [%] | also measured |
| --- | --- | --- |
| OC(Cc1ccccc1Cl)(Cn1nc[nH]c1=S)C1(Cl)CC1 (centres unmarked) [2.23 prothioconazole, prothioconazole] |  | Efficacy in % found (20 ppm a.i.): 0% |
| CO/C=C(/C(=O)OC)c1ccccc1Oc1cc(Oc2ccccc2C#N)ncn1 [3.2 azoxystrobin, azoxystrobin] | 78 |  |
| COC(=O)N(OC)c1ccccc1COc1ccn(-c2ccc(Cl)cc2)n1 [3.14 pyraclostrobin, pyraclostrobin] | 22 |  |
| CON=C(C(=O)OC)c1ccccc1CON=C(C)c1cccc(C(F)(F)F)c1 [3.15 trifloxystrobin, trifloxystrobin] | 33 |  |
| CC1CC(C)(C)c2cccc(NC(=O)c3cn(C)nc3C(F)F)c21 (centres unmarked) [(I-1), 3-(difluoromethyl)-1-methyl-N-(1,1,3-trimethyl-2,3-dihydro-1H-inden-4-yl)-1H-pyrazole-4-carboxamide] |  | Efficacy in % found (30 ppm a.i.): 78% |
